System: 496974-208-R-J2-PDC complex spheroids, growth % test/control
Experiment: Anticancer human tumor 496974-208-R-J2-PDC patient-derived pancreatic carcinoma cell line growth inhibition [CLK]
Settings: for IC50: curve of first compound; for viability, T/C: stronger effect = lower value
How it was run: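 Patient-derived tumor cells grown as complex spheroids with HUVEC endothelial cells and mesenchymal stem cells, treated with drug combinations. Concentrations descend in half-log steps from near clinical Cmax, or from 10 microM if Cmax unknown.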

[1] = second compound 0.0316 µM, first compound 0.0316 µM
[2] = second compound 0.0316 µM, first compound 0.1 µM
[3] = second compound 0.0316 µM, first compound 0.316 µM
[4] = second compound 0.0316 µM, first compound 1 µM
[5] = second compound 0.0316 µM, first compound 3.16 µM
[6] = second compound 0.0316 µM, first compound 10 µM
[7] = second compound 0.1 µM, first compound 0.0316 µM
[8] = second compound 0.1 µM, first compound 0.1 µM
[9] = second compound 0.1 µM, first compound 0.316 µM
[10] = second compound 0.1 µM, first compound 1 µM
[11] = second compound 0.1 µM, first compound 3.16 µM
[12] = second compound 0.1 µM, first compound 10 µM
[13] = second compound 0.316 µM, first compound 0.0316 µM
[14] = second compound 0.316 µM, first compound 0.1 µM
[15] = second compound 0.316 µM, first compound 0.316 µM
[16] = second compound 0.316 µM, first compound 1 µM
[17] = second compound 0.316 µM, first compound 3.16 µM
[18] = second compound 0.316 µM, first compound 10 µM
[19] = second compound 1 µM, first compound 0.0316 µM
[20] = second compound 1 µM, first compound 0.1 µM
[21] = second compound 1 µM, first compound 0.316 µM
[22] = second compound 1 µM, first compound 1 µM
[23] = second compound 1 µM, first compound 3.16 µM
[24] = second compound 1 µM, first compound 10 µM
[25] = second compound 3.16 µM, first compound 0.0316 µM
[26] = second compound 3.16 µM, first compound 0.1 µM
[27] = second compound 3.16 µM, first compound 0.316 µM
[28] = second compound 3.16 µM, first compound 1 µM
[29] = second compound 3.16 µM, first compound 3.16 µM
[30] = second compound 3.16 µM, first compound 10 µM
[31] = second compound 10 µM, first compound 0.0316 µM
[32] = second compound 10 µM, first compound 0.1 µM
[33] = second compound 10 µM, first compound 0.316 µM
[34] = second compound 10 µM, first compound 1 µM
[35] = second compound 10 µM, first compound 3.16 µM
[36] = second compound 10 µM, first compound 10 µM
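Also: spheroids exposed to the drugs for 7 days before readout.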
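For viability, T/C in this document: 100% = DMSO vehicle control wells.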

Molecule `COc1ccc([C@@H](O)c2cc(-c3ncnc4cc(N5CCOCC5)ccc34)c(F)cc2Cl)nn1` + CN1CCN(c2cc(C(=O)Nc3cc4cc(-c5cnn(C)c5)ccc4cn3)ccn2)CC1 has an IC50 (second compound 0.0316 µM) of 5.97 µM, an IC50 (second compound 0.1 µM) of 3.47 µM and an IC50 (second compound 0.316 µM) of less than 0.0316 µM. It also gave an IC50 (second compound 1 µM) of less than 0.0316 µM, an IC50 (second compound 3.16 µM) of less than 0.0316 µM and an IC50 (second compound 10 µM) of less than 0.0316 µM. It also gave a viability, T/C [1] of 110%, a viability, T/C [2] of 101% and a viability, T/C [3] of 92.9%. The viability, T/C [4] was 88.7%, the viability, T/C [5] was 63.6% and the viability, T/C [6] was 37.7%. The viability, T/C [7] was 84.8%, the viability, T/C [8] was 81.4% and the viability, T/C [9] was 84.2%. It also gave a viability, T/C [10] of 69.9%, a viability, T/C [11] of 52.2% and a viability, T/C [12] of 31.5%. The viability, T/C [13] was 4.25%, the viability, T/C [14] was 4.3% and the viability, T/C [15] was 5.59%. It also gave a viability, T/C [16] of 3.72%, a viability, T/C [17] of 2.53% and a viability, T/C [18] of 1.66%. It also gave a viability, T/C [19] of 0.41%, a viability, T/C [20] of 0.45% and a viability, T/C [21] of 2.89%. For the same molecule, the viability, T/C [22] was 0.48%, the viability, T/C [23] was 1.17% and the viability, T/C [24] was 1.46%. It also gave a viability, T/C [25] of 0.36%, a viability, T/C [26] of 0.61% and a viability, T/C [27] of 0.67%. For the same molecule, the viability, T/C [28] was 0.54%, the viability, T/C [29] was 2.79% and the viability, T/C [30] was 2.82%. For the same molecule, the viability, T/C [31] was 0.19%, the viability, T/C [32] was 0.34% and the viability, T/C [33] was 1.74%. The viability, T/C [34] was 0.3%, the viability, T/C [35] was 2% and the viability, T/C [36] was 2.87%.

`C=CC(=O)N1CCN(c2nc(=O)n(-c3c(C)ccnc3C(C)C)c3nc(-c4c(O)cccc4F)c(F)cc23)C(C)C1` (stereo not drawn) + CNC(=O)c1ccc(Nc2nc(OC3CCCC3)c3c(-c4ccc5nc(C)oc5c4)c[nH]c3n2)c(OC)c1 was tested, and the IC50 (second compound 0.0316 µM) was greater than 10 µM, the IC50 (second compound 0.1 µM) was greater than 10 µM and the IC50 (second compound 0.316 µM) was greater than 10 µM. For the same molecule, the IC50 (second compound 1 µM) was greater than 10 µM, the IC50 (second compound 3.16 µM) was 7.28 µM and the IC50 (second compound 10 µM) was 4.7 µM. The viability, T/C [1] was 106%, the viability, T/C [2] was 95.9% and the viability, T/C [3] was 93.6%. For the same molecule, the viability, T/C [4] was 107%, the viability, T/C [5] was 102% and the viability, T/C [6] was 85.7%. It also gave a viability, T/C [7] of 71.5%, a viability, T/C [8] of 67.4% and a viability, T/C [9] of 78.5%. The viability, T/C [10] was 77.1%, the viability, T/C [11] was 73% and the viability, T/C [12] was 64.8%. For the same molecule, the viability, T/C [13] was 78.8%, the viability, T/C [14] was 76.5% and the viability, T/C [15] was 71%. For the same molecule, the viability, T/C [16] was 76.2%, the viability, T/C [17] was 71.1% and the viability, T/C [18] was 53.3%. It also gave a viability, T/C [19] of 63.2%, a viability, T/C [20] of 62.8% and a viability, T/C [21] of 67.7%. It also gave a viability, T/C [22] of 68.8%, a viability, T/C [23] of 66% and a viability, T/C [24] of 49%. It also gave a viability, T/C [25] of 51.6%, a viability, T/C [26] of 62.4% and a viability, T/C [27] of 52.3%. For the same molecule, the viability, T/C [28] was 58.5%, the viability, T/C [29] was 55% and the viability, T/C [30] was 42.7%. The viability, T/C [31] was 62%, the viability, T/C [32] was 51.5% and the viability, T/C [33] was 51.6%. For the same molecule, the viability, T/C [34] was 54.3%, the viability, T/C [35] was 55.7% and the viability, T/C [36] was 41%.

`CCCS(=O)(=O)Nc1ccc(F)c(C(=O)c2c[nH]c3ncc(-c4ccc(Cl)cc4)cc23)c1F` + CNC(=O)c1ccc(Nc2nc(OC3CCCC3)c3c(-c4ccc5nc(C)oc5c4)c[nH]c3n2)c(OC)c1 gave an IC50 (second compound 0.0316 µM) of 6.39 µM, an IC50 (second compound 0.1 µM) of 6.36 µM and an IC50 (second compound 0.316 µM) greater than 10 µM. For the same molecule, the IC50 (second compound 1 µM) was 2.59 µM, the IC50 (second compound 3.16 µM) was 0.0681 µM and the IC50 (second compound 10 µM) was less than 0.0316 µM. It also gave a viability, T/C [1] of 94.7%, a viability, T/C [2] of 73.7% and a viability, T/C [3] of 115%. The viability, T/C [4] was 100%, the viability, T/C [5] was 91% and the viability, T/C [6] was 23.6%. It also gave a viability, T/C [7] of 71.5%, a viability, T/C [8] of 47.6% and a viability, T/C [9] of 78.6%. It also gave a viability, T/C [10] of 86%, a viability, T/C [11] of 78.2% and a viability, T/C [12] of 35.6%. For the same molecule, the viability, T/C [13] was 70.7%, the viability, T/C [14] was 45.4% and the viability, T/C [15] was 76.3%. For the same molecule, the viability, T/C [16] was 71.2%, the viability, T/C [17] was 78.2% and the viability, T/C [18] was 29.6%. It also gave a viability, T/C [19] of 51.2%, a viability, T/C [20] of 44.1% and a viability, T/C [21] of 64.5%. The viability, T/C [22] was 69.5%, the viability, T/C [23] was 66.2% and the viability, T/C [24] was 22.4%. It also gave a viability, T/C [25] of 52%, a viability, T/C [26] of 26% and a viability, T/C [27] of 61.9%. The viability, T/C [28] was 63.3%, the viability, T/C [29] was 53.1% and the viability, T/C [30] was 19.8%. The viability, T/C [31] was 50.7%, the viability, T/C [32] was 30.5% and the viability, T/C [33] was 58.6%. The viability, T/C [34] was 61.7%, the viability, T/C [35] was 64% and the viability, T/C [36] was 27.2%.

Molecule `COC1C=CCC(C)C(C)S(=O)(=O)NC(=O)c2ccc3c(c2)N(CC2CCC21)CC1(CCCc2cc(Cl)ccc21)CO3` (stereo not drawn) + CNC(=O)c1ccc(Nc2nc(OC3CCCC3)c3c(-c4ccc5nc(C)oc5c4)c[nH]c3n2)c(OC)c1 has an IC50 (second compound 0.0316 µM) of 5.11 µM, an IC50 (second compound 0.1 µM) of 3.49 µM and an IC50 (second compound 0.316 µM) of 0.19 µM. It also gave an IC50 (second compound 1 µM) of 0.0521 µM, an IC50 (second compound 3.16 µM) of 0.0404 µM and an IC50 (second compound 10 µM) of 0.0409 µM. For the same molecule, the viability, T/C [1] was 103%, the viability, T/C [2] was 60.8% and the viability, T/C [3] was 87.7%. For the same molecule, the viability, T/C [4] was 71.9%, the viability, T/C [5] was 70% and the viability, T/C [6] was 26.3%. For the same molecule, the viability, T/C [7] was 76.7%, the viability, T/C [8] was 55.6% and the viability, T/C [9] was 69.1%. It also gave a viability, T/C [10] of 60.2%, a viability, T/C [11] of 53.1% and a viability, T/C [12] of 29.7%. For the same molecule, the viability, T/C [13] was 50.7%, the viability, T/C [14] was 57.1% and the viability, T/C [15] was 46.9%. For the same molecule, the viability, T/C [16] was 41.3%, the viability, T/C [17] was 38.1% and the viability, T/C [18] was 49.9%. For the same molecule, the viability, T/C [19] was 59.7%, the viability, T/C [20] was 36.7% and the viability, T/C [21] was 39.8%. The viability, T/C [22] was 34.4%, the viability, T/C [23] was 38% and the viability, T/C [24] was 30.6%. For the same molecule, the viability, T/C [25] was 53.5%, the viability, T/C [26] was 36.3% and the viability, T/C [27] was 35%. It also gave a viability, T/C [28] of 33%, a viability, T/C [29] of 33.3% and a viability, T/C [30] of 29.7%. For the same molecule, the viability, T/C [31] was 53.9%, the viability, T/C [32] was 36.8% and the viability, T/C [33] was 34.2%. It also gave a viability, T/C [34] of 31.6%, a viability, T/C [35] of 30.1% and a viability, T/C [36] of 24.1%.

Reference: PubChem BioAssay AID2060615 (Molecular Pharmacology Branch, DTP, NCI, 2025)
